According to the NIST ThermoML archive (doi:10.1016/j.tca.2013.11.010):
± gives the expanded uncertainty stated by the source.

Experiments:
[1] = for surface tension liquid-gas: Drop volume; for viscosity / speed of sound / mass density: 101.33 kPa; for viscosity / speed of sound / mass density / vapor or sublimation pressure: Liquid; for viscosity: Capillary tube (Ostwald / Ubbelohde) method; for speed of sound: Sing-around technique in a fixed-path interferometer; for mass density: Vibrating tube method; for vapor or sublimation pressure: Ebulliometric method (Recirculating still)
[2] = refractive index (Na D-line) (dimensionless); settings: 101.33 kPa, Liquid, Standard Abbe refractometry
[3] = relative permittivity at various frequencies (dimensionless); settings: 101.3 kPa, Liquid, Frequency=2 MHz, Parallel plate capacitor

CCOC(=O)C(C)O (racemic) [DL-ethyl lactate]
Settings	mass density, [1] [kg/m3]	refractive index, [2]	relative permittivity, [3]	speed of sound, [1] [m/s]	surface tension liquid-gas, [1] [mN/m]	vapor or sublimation pressure, [1] [kPa]	viscosity, [1] [mPa·s]
278.15 K	1050.05 ± 0.94	–	17.791 ± 0.18	1354.5 ± 2.3	31.47 ± 0.35	–	4.479 ± 0.1
280.65 K	1047.37 ± 0.94	–	17.538 ± 0.17	1345.2 ± 2.3	31.21 ± 0.35	–	4.091 ± 0.094
283.15 K	1044.68 ± 0.93	1.41751 ± 0.00054	17.219 ± 0.17	1335.7 ± 2.3	30.94 ± 0.35	–	3.75 ± 0.086
285.65 K	1041.96 ± 0.92	1.41644 ± 0.00054	16.961 ± 0.17	1326.2 ± 2.3	30.79 ± 0.35	–	3.451 ± 0.079
288.15 K	1039.26 ± 0.92	1.41528 ± 0.00054	16.736 ± 0.17	1316.8 ± 2.3	30.43 ± 0.34	–	3.184 ± 0.073
290.65 K	1036.54 ± 0.91	1.41414 ± 0.00054	16.496 ± 0.17	1307.5 ± 2.3	30.18 ± 0.34	–	2.947 ± 0.068
293.15 K	1033.82 ± 0.91	1.41301 ± 0.00054	16.166 ± 0.16	1298.3 ± 2.3	29.95 ± 0.34	–	2.735 ± 0.063
295.65 K	1031.09 ± 0.9	1.41188 ± 0.00054	15.961 ± 0.16	1289 ± 2.3	29.67 ± 0.34	–	2.546 ± 0.058
298.15 K	1028.37 ± 0.9	1.41074 ± 0.00054	15.711 ± 0.16	1279.7 ± 2.3	29.49 ± 0.33	–	2.375 ± 0.055
300.65 K	1025.63 ± 0.89	1.40959 ± 0.00054	15.448 ± 0.15	1270.5 ± 2.3	29.23 ± 0.33	–	2.221 ± 0.051
303.15 K	1022.89 ± 0.88	1.40843 ± 0.00054	15.18 ± 0.15	1261.2 ± 2.3	28.88 ± 0.33	0.436 ± 0.1	2.081 ± 0.048
305.65 K	1020.15 ± 0.88	1.40729 ± 0.00054	14.917 ± 0.15	1251.9 ± 2.3	28.64 ± 0.33	–	1.955 ± 0.045
308.15 K	1017.4 ± 0.87	1.40615 ± 0.00054	14.639 ± 0.15	1242.6 ± 2.3	28.42 ± 0.32	0.603 ± 0.1	1.838 ± 0.042
310.65 K	1014.64 ± 0.87	1.40501 ± 0.00054	14.373 ± 0.14	1233.3 ± 2.3	28.12 ± 0.32	–	1.733 ± 0.04
313.15 K	1011.88 ± 0.86	1.40381 ± 0.00054	14.107 ± 0.14	1224 ± 2.3	27.84 ± 0.32	0.829 ± 0.1	1.636 ± 0.038
315.65 K	1009.12 ± 0.86	1.40267 ± 0.00054	13.843 ± 0.14	1214.7 ± 2.3	27.46 ± 0.31	–	1.547 ± 0.036
318.15 K	1006.34 ± 0.85	1.40152 ± 0.00054	13.573 ± 0.14	1205.4 ± 2.3	27.19 ± 0.31	1.142 ± 0.1	1.466 ± 0.034
320.65 K	1003.57 ± 0.84	1.40036 ± 0.00054	13.298 ± 0.13	1196.1 ± 2.3	26.92 ± 0.31	–	1.391 ± 0.032
323.15 K	1000.78 ± 0.84	1.39918 ± 0.00054	13.045 ± 0.13	1186.8 ± 2.3	26.65 ± 0.31	1.536 ± 0.1	1.321 ± 0.03
325.65 K	997.99 ± 0.83	1.39798 ± 0.00054	12.786 ± 0.13	1177.6 ± 2.3	26.29 ± 0.3	–	1.255 ± 0.029
328.15 K	995.193 ± 0.83	1.39684 ± 0.00054	12.538 ± 0.12	1168.4 ± 2.3	26.08 ± 0.3	2.015 ± 0.1	1.196 ± 0.028
330.65 K	992.389 ± 0.83	1.3956 ± 0.00054	12.286 ± 0.12	1159.1 ± 2.3	25.92 ± 0.3	–	1.14 ± 0.026
333.15 K	989.579 ± 0.82	1.39448 ± 0.00054	12.044 ± 0.12	1149.9 ± 2.3	25.48 ± 0.29	2.717 ± 0.1	1.087 ± 0.025
335.65 K	986.763 ± 0.82	1.3933 ± 0.00054	11.787 ± 0.12	1140.7 ± 2.3	25.32 ± 0.29	–	1.037 ± 0.024
338.15 K	983.942 ± 0.82	1.39215 ± 0.00054	11.495 ± 0.12	1131.6 ± 2.3	25.05 ± 0.29	3.523 ± 0.1	0.9907 ± 0.023
343.15 K	–	–	–	–	–	4.591 ± 0.1	–
348.15 K	–	–	–	–	–	5.851 ± 0.1	–
353.15 K	–	–	–	–	–	7.323 ± 0.1	–
358.15 K	–	–	–	–	–	9.29 ± 0.1	–
363.15 K	–	–	–	–	–	11.49 ± 0.1	–
368.15 K	–	–	–	–	–	14.19 ± 0.1	–
373.15 K	–	–	–	–	–	17.37 ± 0.11	–
378.15 K	–	–	–	–	–	21.11 ± 0.11	–
383.15 K	–	–	–	–	–	25.51 ± 0.11	–
388.15 K	–	–	–	–	–	30.62 ± 0.12	–
393.15 K	–	–	–	–	–	36.24 ± 0.13	–
398.15 K	–	–	–	–	–	42.71 ± 0.14	–
403.15 K	–	–	–	–	–	50.4 ± 0.15	–
408.15 K	–	–	–	–	–	59.11 ± 0.16	–
413.15 K	–	–	–	–	–	69.13 ± 0.18	–
418.15 K	–	–	–	–	–	80.2 ± 0.2	–
423.15 K	–	–	–	–	–	92.51 ± 0.22	–

COC(=O)C(C)O (centres undefined) [methyl 2-hydroxypropanoate]
Settings	mass density, [1] [kg/m3]	refractive index, [2]	relative permittivity, [3]	speed of sound, [1] [m/s]	surface tension liquid-gas, [1] [mN/m]	vapor or sublimation pressure, [1] [kPa]	viscosity, [1] [mPa·s]
278.15 K	1109.61 ± 1.1	–	18.379 ± 0.18	1416.4 ± 2.3	35.05 ± 0.39	–	5.21 ± 0.12
280.65 K	1106.86 ± 1.1	–	18.095 ± 0.18	1407.1 ± 2.3	34.8 ± 0.39	–	4.706 ± 0.11
283.15 K	1104.11 ± 1.1	1.41831 ± 0.00054	17.817 ± 0.18	1397.6 ± 2.3	34.53 ± 0.39	–	4.281 ± 0.098
285.65 K	1101.34 ± 1.1	1.41722 ± 0.00054	17.634 ± 0.18	1387.9 ± 2.3	34.25 ± 0.38	–	3.916 ± 0.09
288.15 K	1098.57 ± 1	1.41613 ± 0.00054	17.353 ± 0.17	1378.2 ± 2.3	34.04 ± 0.38	–	3.588 ± 0.082
290.65 K	1095.79 ± 1	1.41502 ± 0.00054	17.06 ± 0.17	1368.2 ± 2.3	33.73 ± 0.38	–	3.299 ± 0.076
293.15 K	1093.01 ± 1	1.41392 ± 0.00054	16.779 ± 0.17	1358.4 ± 2.3	33.47 ± 0.37	–	3.043 ± 0.07
295.65 K	1090.23 ± 1	1.41281 ± 0.00054	16.493 ± 0.17	1348.6 ± 2.3	33.14 ± 0.37	–	2.819 ± 0.065
298.15 K	1087.43 ± 1	1.41171 ± 0.00054	16.21 ± 0.16	1338.8 ± 2.3	32.9 ± 0.37	–	2.618 ± 0.06
300.65 K	1084.64 ± 1	1.41061 ± 0.00054	15.923 ± 0.16	1329.2 ± 2.3	32.6 ± 0.37	–	2.438 ± 0.056
303.15 K	1081.83 ± 1	1.40949 ± 0.00054	15.647 ± 0.16	1319.5 ± 2.3	32.25 ± 0.36	0.692 ± 0.1	2.277 ± 0.052
305.65 K	1079.02 ± 1	1.40837 ± 0.00054	15.412 ± 0.15	1309.9 ± 2.3	31.95 ± 0.36	–	2.132 ± 0.049
308.15 K	1076.2 ± 1	1.40725 ± 0.00054	15.093 ± 0.15	1300.4 ± 2.3	31.58 ± 0.36	0.967 ± 0.1	2 ± 0.046
310.65 K	1073.38 ± 0.99	1.40614 ± 0.00054	14.861 ± 0.15	1290.9 ± 2.3	31.23 ± 0.35	–	1.881 ± 0.043
313.15 K	1070.55 ± 0.98	1.40502 ± 0.00054	14.598 ± 0.15	1281.4 ± 2.3	30.87 ± 0.35	1.333 ± 0.1	1.772 ± 0.041
315.65 K	1067.71 ± 0.98	1.40386 ± 0.00054	14.355 ± 0.14	1271.9 ± 2.3	30.63 ± 0.35	–	1.672 ± 0.038
318.15 K	1064.86 ± 0.97	1.40276 ± 0.00054	14.127 ± 0.14	1262.4 ± 2.3	30.34 ± 0.34	1.821 ± 0.1	1.58 ± 0.036
320.65 K	1062.01 ± 0.97	1.40164 ± 0.00054	13.9 ± 0.14	1253 ± 2.3	30.08 ± 0.34	–	1.499 ± 0.034
323.15 K	1059.15 ± 0.96	1.40051 ± 0.00054	13.666 ± 0.14	1243.5 ± 2.3	29.71 ± 0.34	2.399 ± 0.1	1.425 ± 0.033
325.65 K	1056.28 ± 0.95	1.39937 ± 0.00054	13.359 ± 0.13	1234.1 ± 2.3	29.38 ± 0.33	–	1.345 ± 0.031
328.15 K	1053.4 ± 0.95	1.39821 ± 0.00054	13.113 ± 0.13	1224.6 ± 2.3	29.03 ± 0.33	3.173 ± 0.1	1.29 ± 0.03
330.65 K	1050.52 ± 0.94	1.3971 ± 0.00054	12.879 ± 0.13	1215.2 ± 2.3	28.83 ± 0.33	–	1.231 ± 0.028
333.15 K	1047.63 ± 0.94	1.39596 ± 0.00054	12.631 ± 0.13	1205.7 ± 2.3	28.52 ± 0.32	4.139 ± 0.1	1.175 ± 0.027
335.65 K	1044.73 ± 0.93	1.39479 ± 0.00054	12.319 ± 0.12	1196.3 ± 2.3	28.22 ± 0.32	–	1.136 ± 0.026
338.15 K	1041.83 ± 0.92	1.39365 ± 0.00054	12.012 ± 0.12	1186.9 ± 2.3	27.92 ± 0.32	5.319 ± 0.1	1.075 ± 0.025
343.15 K	–	–	–	–	–	6.889 ± 0.1	–
348.15 K	–	–	–	–	–	8.652 ± 0.1	–
353.15 K	–	–	–	–	–	10.81 ± 0.1	–
358.15 K	–	–	–	–	–	13.49 ± 0.1	–
363.15 K	–	–	–	–	–	16.6 ± 0.11	–
368.15 K	–	–	–	–	–	20.3 ± 0.11	–
373.15 K	–	–	–	–	–	24.7 ± 0.11	–
378.15 K	–	–	–	–	–	29.68 ± 0.12	–
383.15 K	–	–	–	–	–	35.5 ± 0.13	–
388.15 K	–	–	–	–	–	42.28 ± 0.14	–
393.15 K	–	–	–	–	–	50 ± 0.15	–
398.15 K	–	–	–	–	–	58.68 ± 0.16	–
403.15 K	–	–	–	–	–	68.64 ± 0.17	–
408.15 K	–	–	–	–	–	79.85 ± 0.2	–
413.15 K	–	–	–	–	–	92.5 ± 0.22	–
